From a compilation of properties of binary mixtures (doi:10.1007/s10953-017-0695-7)

Assay: xn = mol fraction of the nth substance listed
Details: 101 kPa

CCCCCO + CCCCCC[n+]1ccn(C)c1.[Cl-]
x1 = 1
Details	viscosity [mPa·s]
293.15 K	3.99
313.15 K	2.29
323.15 K	1.79
333.15 K	1.39

OCCO + CCCCCC[n+]1ccn(C)c1.[Cl-]
x1 = 1
Details	viscosity [mPa·s]
293.15 K	21.35
303.15 K	14.1
313.15 K	9.74
323.15 K	7.02
333.15 K	5.2

CCCCCC[n+]1ccn(C)c1.[Cl-] + CCCCCO
viscosity [mPa·s]
Details	293.15 K	303.15 K	313.15 K	323.15 K	333.15 K
x1 = 0.0042	4.14	–	–	1.85	1.46
x1 = 0.0088	–	3.23	2.49	1.92	1.54
x1 = 0.0166	4.56	–	2.62	2.03	1.61
x2 = 0	11400	4206	1718	–	398
x2 = 0.1514	3550	–	803	418	192.5
x2 = 0.2971	1014	491	–	148.2	91
x2 = 0.5018	182.4	108.3	68.1	44.92	31.33
x2 = 0.6066	75.1	48.8	32.87	23.14	16.9
x2 = 0.7018	31.71	22.14	16.01	11.88	–
x2 = 0.8012	14.74	10.86	–	–	4.99
x2 = 0.849	–	7.85	6.03	4.68	3.76
x2 = 0.8825	8.5	6.37	4.92	3.87	3.06
x2 = 0.9494	5.73	4.29	3.28	2.56	2.02
x2 = 0.9749	4.83	3.63	2.81	2.17	1.71

CCCCCC[n+]1ccn(C)c1.[Cl-] + OCCO
viscosity [mPa·s]
Details	293.15 K	303.15 K	313.15 K	323.15 K	333.15 K
x1 = 0.003	–	14.18	9.77	7.07	5.21
x1 = 0.0061	21.52	14.23	9.86	–	–
x1 = 0.0124	21.64	14.24	9.94	7.17	5.33
x1 = 0.0188	21.81	–	–	7.24	5.4
x2 = 0	11400	–	1718	–	398
x2 = 0.1526	3449	861	629	326	–
x2 = 0.3167	774	385	214.7	127.1	79.6
x2 = 0.3999	387	210.7	124.2	77.3	51.2
x2 = 0.4977	–	102.8	65.1	42.5	–
x2 = 0.6002	–	53	35.51	–	18.06
x2 = 0.6987	46.8	30.76	–	–	–
x2 = 0.8026	29.46	19.81	13.95	10.18	7.71
x2 = 0.8897	24.2	16.2	–	8.37	6.32
x2 = 0.8998	23.77	16.02	11.25	–	6.18
x2 = 0.9152	23.12	15.52	10.98	7.98	6
x2 = 0.931	22.64	15.24	10.67	7.73	5.82
x2 = 0.9532	22.13	14.78	10.37	7.51	–
x2 = 0.9642	22.02	14.71	–	–	5.53
x2 = 0.9761	21.83	14.45	–	7.27	5.46
